Source: patent publication US12404295B2, “(Hetero)aryl-methyl-thio-beta-D-galactopyranoside derivatives” (Idorsia Pharmaceuticals Ltd, priority 2019, dated 2025)
Like-named read-outs stand apart in the source and are kept apart here.

How the values were obtained:
human Gal-3 (hGal-3) = human Gal-3 (hGal-3) (Homo sapiens (Human), UniProt P17931); test: competitive binding assay: biotinylated hGal-3 binding to microplate-adsorbed asialofetuin (ASF); conditions: read-out: IC50 (Gal-3 inhibition)
How it was run: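 Serially diluted compounds compete with biotinylated hGal-3 binding to adsorbed asialofetuin (3 hours, 4° C). After washing, streptavidin-peroxidase at 80 ng/mL for 1 hour at 4° C, with ABTS colour read-out. IC50 values are averaged over repeated runs.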

human Gal-1 (hGal-1) = human Gal-1 (hGal-1) (Homo sapiens (Human), UniProt P09382); test: competitive binding assay: biotinylated hGal-1 binding to microplate-adsorbed asialofetuin (ASF); conditions: Table 15; read-out: IC50 (Galectin-1 inhibition)
Chain of human Gal-1 (hGal-1) (P09382 whole entry): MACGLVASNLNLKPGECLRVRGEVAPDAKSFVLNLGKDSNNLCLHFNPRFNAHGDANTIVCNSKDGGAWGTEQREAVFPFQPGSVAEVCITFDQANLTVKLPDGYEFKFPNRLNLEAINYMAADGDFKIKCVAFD
How it was run: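 Spectrophotometric competition readout: after compound and biotinylated hGal-1 (300-1000 ng/mL) sit 3 h at 4° C on adsorbed asialofetuin, streptavidin-peroxidase (1 h, 4° C) and ABTS reveal residual binding. Reported IC50 values are means of repeat runs.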

Chain of human Gal-3 (hGal-3) (P17931 whole entry): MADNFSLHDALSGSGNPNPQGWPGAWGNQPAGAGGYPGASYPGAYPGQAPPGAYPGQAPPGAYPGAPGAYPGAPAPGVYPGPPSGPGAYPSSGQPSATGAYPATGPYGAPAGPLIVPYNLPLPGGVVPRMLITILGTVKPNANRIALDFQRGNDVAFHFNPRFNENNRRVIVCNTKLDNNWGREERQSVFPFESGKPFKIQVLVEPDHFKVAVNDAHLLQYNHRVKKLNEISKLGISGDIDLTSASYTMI

Row | IC50 (human Gal-3 (hGal-3); Table 10, 2-OMe-Gal inhibitors) | IC50 (human Gal-1 (hGal-1)) | IC50 (human Gal-3 (hGal-3); Table 11) | SMILES
1 | 300 nM | 840 nM | – | CCn1nnc(C)c1C(S[C@@H]1O[C@H](CO)[C@H](O)[C@H](n2cc(-c3cc(F)c(F)c(F)c3)nn2)[C@H]1OC)C1(O)CCC(F)(F)CC1 (stereo partly drawn) [Example 2.44.138.I., (2R,3R,4S,5R,6S)-6-(((4,4-Difluoro-1-hydroxycyclohexyl)(1-ethyl-4-methyl-1H-1,2,3-triazol-5-yl)methyl)thio)-2-(hydroxymethyl)-5-methoxy-4-(4-(3,4,5-trifluorophenyl)-1H-1,2,3-triazol-1-yl)tetrahydro-2H-pyran-3-ol]
2 | 150 nM | 400 nM | – | CCn1nnc(C)c1[C@@H](S[C@@H]1O[C@H](CO)[C@H](O)[C@H](n2cc(-c3cc(F)c(F)c(F)c3)nn2)[C@H]1OC)C1(O)CCC(F)(F)CC1 [Example 2.44.138R.I., (2R,3R,4S,5R,6S)-6-(((R)-(4,4-Difluoro-1-hydroxycyclohexyl)(1-ethyl-4-methyl-1H-1,2,3-triazol-5-yl)methyl)thio)-2-(hydroxymethyl)-5-methoxy-4-(4-(3,4,5-trifluorophenyl)-1H-1,2,3-triazol-1-yl)tetrahydro-2H-pyran-3-ol]
3 | 13200 nM | > 100000 nM | – | CCn1nnc(C)c1[C@H](S[C@@H]1O[C@H](CO)[C@H](O)[C@H](n2cc(-c3cc(F)c(F)c(F)c3)nn2)[C@H]1OC)C1(O)CCC(F)(F)CC1 [Example 2.44.138S.I., (2R,3R,4S,5R,6S)-6-(((S)-(4,4-Difluoro-1-hydroxycyclohexyl)(1-ethyl-4-methyl-1H-1,2,3-triazol-5-yl)methyl)thio)-2-(hydroxymethyl)-5-methoxy-4-(4-(3,4,5-trifluorophenyl)-1H-1,2,3-triazol-1-yl)tetrahydro-2H-pyran-3-ol]
4 | 620 nM | 3900 nM | – | CCn1ncc(Cl)c1C(S[C@@H]1O[C@H](CO)[C@H](O)[C@H](n2cc(-c3cc(F)c(F)c(F)c3)nn2)[C@H]1OC)C1(O)CCC(F)(F)CC1 (stereo partly drawn) [Example 2.44.139.I., (2R,3R,4S,5R,6S)-6-(((4-Chloro-1-ethyl-1H-pyrazol-5-yl)(4,4-difluoro-1-hydroxycyclohexyl)methyl)thio)-2-(hydroxymethyl)-5-methoxy-4-(4-(3,4,5-trifluorophenyl)-1H-1,2,3-triazol-1-yl)tetrahydro-2H-pyran-3-ol]
5 | 320 nM | 540 nM | – | CCn1ncc(Cl)c1[C@@H](S[C@@H]1O[C@H](CO)[C@H](O)[C@H](n2cc(-c3cc(F)c(F)c(F)c3)nn2)[C@H]1OC)C1(O)CCC(F)(F)CC1 [Example 2.44.139R.I., (2R,3R,4S,5R,6S)-6-(((R)-(4-Chloro-1-ethyl-1H-pyrazol-5-yl)(4,4-difluoro-1-hydroxycyclohexyl)methyl)thio)-2-(hydroxymethyl)-5-methoxy-4-(4-(3,4,5-trifluorophenyl)-1H-1,2,3-triazol-1-yl)tetrahydro-2H-pyran-3-ol]
6 | 37900 nM | > 100000 nM | – | CCn1ncc(Cl)c1[C@H](S[C@@H]1O[C@H](CO)[C@H](O)[C@H](n2cc(-c3cc(F)c(F)c(F)c3)nn2)[C@H]1OC)C1(O)CCC(F)(F)CC1 [Example 2.44.139S.I., (2R,3R,4S,5R,6S)-6-(((S)-(4-Chloro-1-ethyl-1H-pyrazol-5-yl)(4,4-difluoro-1-hydroxycyclohexyl)methyl)thio)-2-(hydroxymethyl)-5-methoxy-4-(4-(3,4,5-trifluorophenyl)-1H-1,2,3-triazol-1-yl)tetrahydro-2H-pyran-3-ol]
7 | 120 nM | 700 nM | – | CCc1onc([C@@H](S[C@@H]2O[C@H](CO)[C@H](O)[C@H](n3cc(-c4cc(F)c(F)c(F)c4)nn3)[C@H]2OC)C2(O)CCC(F)(F)CC2)c1C [Example 2.44.140R.I., (2R,3R,4S,5R,6S)-6-(((R)-(4,4-Difluoro-1-hydroxycyclohexyl)(5-ethyl-4-methylisoxazol-3-yl)methyl)thio)-2-(hydroxymethyl)-5-methoxy-4-(4-(3,4,5-trifluorophenyl)-1H-1,2,3-triazol-1-yl)tetrahydro-2H-pyran-3-ol]
8 | – | 860 nM | 150 nM | CO[C@@H]1[C@@H](n2cc(-c3cc(F)c(F)c(F)c3)nn2)[C@@H](O)[C@@H](CO)O[C@H]1SC(c1nccc(Cl)c1C)C1(O)CCC(F)(F)CC1 (stereo partly drawn) [Example 2.44.141.I., (2R,3R,4S,5R,6S)-6-(((4-Chloro-3-methylpyridin-2-yl)(4,4-difluoro-1-hydroxycyclohexyl)methyl)thio)-2-(hydroxymethyl)-5-methoxy-4-(4-(3,4,5-trifluorophenyl)-1H-1,2,3-triazol-1-yl)tetrahydro-2H-pyran-3-ol]
9 | – | 350 nM | 70 nM | CO[C@@H]1[C@@H](n2cc(-c3cc(F)c(F)c(F)c3)nn2)[C@@H](O)[C@@H](CO)O[C@H]1S[C@H](c1nccc(Cl)c1C)C1(O)CCC(F)(F)CC1 [Example 2.44.141R.I., (2R,3R,4S,5R,6S)-6-(((R)-(4-Chloro-3-methylpyridin-2-yl)(4,4-difluoro-1-hydroxycyclohexyl)methyl)thio)-2-(hydroxymethyl)-5-methoxy-4-(4-(3,4,5-trifluorophenyl)-1H-1,2,3-triazol-1-yl)tetrahydro-2H-pyran-3-ol]
10 | – | 10500 nM | 3500 nM | CO[C@@H]1[C@@H](n2cc(-c3cc(F)c(F)c(F)c3)nn2)[C@@H](O)[C@@H](CO)O[C@H]1S[C@@H](c1nccc(Cl)c1C)C1(O)CCC(F)(F)CC1 [Example 2.44.141S.I., (2R,3R,4S,5R,6S)-6-(((S)-(4-Chloro-3-methylpyridin-2-yl)(4,4-difluoro-1-hydroxycyclohexyl)methyl)thio)-2-(hydroxymethyl)-5-methoxy-4-(4-(3,4,5-trifluorophenyl)-1H-1,2,3-triazol-1-yl)tetrahydro-2H-pyran-3-ol]
11 | – | 190 nM | 50 nM | CCc1cccnc1C(S[C@@H]1O[C@H](CO)[C@H](O)[C@H](n2cc(-c3cc(F)c(F)c(F)c3)nn2)[C@H]1OC)C1(O)CCC(F)(F)CC1 (stereo partly drawn) [Example 2.44.142.I., (2R,3R,4S,5R,6S)-6-(((4,4-Difluoro-1-hydroxycyclohexyl)(3-ethylpyridin-2-yl)methyl)thio)-2-(hydroxymethyl)-5-methoxy-4-(4-(3,4,5-trifluorophenyl)-1H-1,2,3-triazol-1-yl)tetrahydro-2H-pyran-3-ol]
12 | – | 100 nM | 30 nM | CCc1cccnc1[C@@H](S[C@@H]1O[C@H](CO)[C@H](O)[C@H](n2cc(-c3cc(F)c(F)c(F)c3)nn2)[C@H]1OC)C1(O)CCC(F)(F)CC1 [Example 2.44.142R.I., (2R,3R,4S,5R,6S)-6-(((R)-(4,4-Difluoro-1-hydroxycyclohexyl)(3-ethylpyridin-2-yl)methyl)thio)-2-(hydroxymethyl)-5-methoxy-4-(4-(3,4,5-trifluorophenyl)-1H-1,2,3-triazol-1-yl)tetrahydro-2H-pyran-3-ol [1,3-di-deoxy-1-((4,4-difluoro-1-hydroxy-cyclohexan-1-yl)-(3-(-ethyl)pyridin-2-yl)methyl-(R)-thio)-2-O-methyl-3-[4-(3,4,5-trifluorophenyl)-1H-1,2,3-triazol-1-yl]-b-D-galactopyranoside]]
13 | – | 8310 nM | 8110 nM | CCc1cccnc1[C@H](S[C@@H]1O[C@H](CO)[C@H](O)[C@H](n2cc(-c3cc(F)c(F)c(F)c3)nn2)[C@H]1OC)C1(O)CCC(F)(F)CC1 [Example 2.44.142S.I., (2R,3R,4S,5R,6S)-6-(((S)-(4,4-Difluoro-1-hydroxycyclohexyl)(3-ethylpyridin-2-yl)methyl)thio)-2-(hydroxymethyl)-5-methoxy-4-(4-(3,4,5-trifluorophenyl)-1H-1,2,3-triazol-1-yl)tetrahydro-2H-pyran-3-ol]
14 | – | 850 nM | 140 nM | CO[C@@H]1[C@@H](n2cc(-c3cc(F)c(F)c(F)c3)nn2)[C@@H](O)[C@@H](CO)O[C@H]1SC(c1nccc(Cl)c1Cl)C1(O)CCC(F)(F)CC1 (stereo partly drawn) [Example 2.44.143.I., (2R,3R,4S,5R,6S)-6-(((3,4-Dichloropyridin-2-yl)(4,4-difluoro-1-hydroxycyclohexyl)methyl)thio)-2-(hydroxymethyl)-5-methoxy-4-(4-(3,4,5-trifluorophenyl)-1H-1,2,3-triazol-1-yl)tetrahydro-2H-pyran-3-ol]
15 | – | 9770 nM | 9970 nM | CO[C@@H]1[C@@H](n2cc(-c3cc(F)c(F)c(F)c3)nn2)[C@@H](O)[C@@H](CO)O[C@H]1S[C@@H](c1nccc(Cl)c1Cl)C1(O)CCC(F)(F)CC1 [Example 2.44.143S.I., (2R,3R,4S,5R,6S)-6-(((S)-(3,4-Dichloropyridin-2-yl)(4,4-difluoro-1-hydroxycyclohexyl)methyl)thio)-2-(hydroxymethyl)-5-methoxy-4-(4-(3,4,5-trifluorophenyl)-1H-1,2,3-triazol-1-yl)tetrahydro-2H-pyran-3-ol]
16 | – | 4160 nM | 250 nM | CO[C@@H]1[C@@H](n2cc(-c3cc(F)c(F)c(F)c3)nn2)[C@@H](O)[C@@H](CO)O[C@H]1SC(c1nc(Cl)ccc1Cl)C1(O)CCC(F)(F)CC1 (stereo partly drawn) [Example 2.44.144.I., (2R,3R,4S,5R,6S)-6-(((3,6-Dichloropyridin-2-yl)(4,4-difluoro-1-hydroxycyclohexyl)methyl)thio)-2-(hydroxymethyl)-5-methoxy-4-(4-(3,4,5-trifluorophenyl)-1H-1,2,3-triazol-1-yl)tetrahydro-2H-pyran-3-ol]
17 | – | 1260 nM | 710 nM | CO[C@@H]1[C@@H](n2cc(-c3cc(F)c(F)c(F)c3)nn2)[C@@H](O)[C@@H](CO)O[C@H]1SC(c1noc(C2CC2)c1C)C1(O)CCC(F)(F)CC1 (stereo partly shown) [Example 2.44.145.I.]
